Results as given in US20030208035A1, “Antifungal and/or antibacterial peptides, preparation methods, compositions containing same and methods of treating mammals and/or plants” (priority 2000, published 2003).

What was measured:
[1] = test system: Candida albicans (IHEM 8060 strain); assay: Candida albicans infected model, lethal in mice (disseminated candidiasis); assay type: in vivo; conditions: FIGS. 2-3; for median mortality, time after infection / morbidity score at day 7: 4 injections; for morbidity score at day 7: 50 = all 10 mice healthy
Description: Heliomycin and its analogues were tested for in vivo antifungal activity in a model infected with Candida albicans, lethal in mice. The pathogenic agent Candida albicans (IHEM 8060 strain) was inoculated by intravenous route (i.v.) at a dose of 2.5×10^6 CFU/mouse. the peptides were administered by i.v. route in 4 injections 6 h, 24 h, 48 h and 72 h after infection. Assessment criteria for activity were evaluation of survival and morbidity at 7 days. The morbidity scores, which take into account general state of health (condition of fur, mobility, hydration) were determined for each mouse with values ranging from 0 to 5 and defined below: 0=dead, 1=moribund, 2=very ill, 3=ill, 4=slightly ill, 5=healthy. The sum of the individual scores was calculated for each group, a score of 50 for a group of 10 mice meaning that all the mice were healthy.
Following a standard protocol, groups of 10 Swiss OF1 male mice weighing 12 g were infected via i.v. route with a dose of 2.5×10^6 CFU/mouse. Heliomycin and Ard1 were administered by i.v. route in 4 injections, 6 h, 24 h, 48 h and 72 h after infection. For each peptide, 2 doses were tested: 10 mg/kg and 30 mg/kg. A placebo group was injected with peptide solvent, 0.9% sodium chloride.
In this experiment, inoculation of the mice with 2.5.10^6 CFU/mouse was 50% lethal at day 5 in the group which received placebo treatment. The first deaths occurred on post-infection day 2.5 and median mortality occurred on post-infection day 5. On day 7, 5 mice were alive and the morbidity score 15/50.
In this experiment, inoculation of Swiss OF1 mice weighing 15 g with 3.10^6 CFU of Candida albicans induces 50% mortality on day 4 after infection in the group treated with the placebo. The first deaths occur 2.5 days after infection, and 100% of the mice were dead on day 5.5.
In this experiment, inoculation of the mice with 2.5.10^6 CFU/mouse was 50% lethal at day 5 and 100% at day 8 for mice in the placebo group. The first death occurred 3 days after infection. The morbidity score fell rapidly below 30/50 (25/50 at day 2.5).
The pEM35 peptide was administered at doses of 10 and 30 mg/kg/injection with 3 daily doses for 4 days (1 h, 5 h and 10 h post-infection on day 0; at 8 h, 14 h and 20 h on days 1, 2 and 3), i.e., daily doses totalling 30 and 90 mg/kg.

Candida albicans = assay: anti-Candida albicans growth inhibition test in liquid medium (96-well microplates); assay type: cell-based; conditions: for Activity C.a. (relative activity in relation to heliomycin): fold relative to heliomycin; for Activity C.a. (relative activity in relation to Ard1): fold relative to Ard1
Description: (§1) The anti-Candida albicans and anti-Aspergillus fumigatus activities of the different analogues were assessed using a growth inhibition test in liquid medium made in 96-well microplates. The activity of the purified peptides was tested for different dilutions of each peptide and was compared with those of heliomycin and Ard1 quantified under the same conditions.
The activity test was made directly on yeasts derived from a stock frozen at −80° C., in Sabouraud medium containing 15% glycerol. The density of the yeasts in the stock was adjusted to an optical density of 0.4 OD at 600 nm. After slow thawing at room temperature, the yeast suspension was reduced by dilution to an optic density of 1 mOD at 600 nm in Sabouraud medium, and 90 μl of this dilution were deposited in the wells of microtitration plates in the presence of 10 μl of sample to be tested. Control samples were systematically made in which 10 μl of sample were replaced by 10 μl of sterile water. Media sterility was controlled by incubating 10 μl sterile water in the presence of 90 μl of medium. The samples were incubated at 30° C. for 40 h under slight stirring and the antifungal activity was quantified by measuring optic density at 600 nm.

Aspergillus fumigatus = assay: anti-Aspergillus fumigatus growth inhibition test in liquid medium (96-well microplates); assay type: cell-based; conditions: for Activity A.f. (relative activity in relation to heliomycin): fold relative to heliomycin; for Activity A.f. (relative activity in relation to Ard1): fold relative to Ard1
Description: as §1
The spores of Aspergillus fumigatus were derived from a stock frozen at −80° C., containing 10^7 spores/ml in a 25% glycerol solution. After slow thawing at room temperature, the spores were placed in suspension in PDB culture medium (12 g Potato Dextrose Broth medium, per […] water). 10 μl of each sample were deposited in the wells of microtitration plates in the presence of 90 μl PDB culture medium supplemented with tetracycline (100 μg/ml) and cefotaxime (1 μg/ml) containing the spores (at a final concentration of 1000 spores/well). Control cultures were systematically made in which 10 μl of sample were replaced by 10 μl of sterile water. Media sterility was controlled by incubating 10 μl sterile water in the presence of 90 μl of medium. The samples were incubated at 37° C. for 24 h to 48 h in a humid atmosphere, and the antifungal activity was quantified by a score of 0 to 9 taking germination account; the size and morphology of the hyphs were determined under the binocular microscope. […].

Cc1cc(O)c2c3c4c(cc(O)c13)C(C)(C)C(=O)c1c(O)cc(O)c(c1-4)C2=O [Heliomycin, reference compound]
median mortality, time after infection ([1]; 10 mg/kg i.v.): 48 h
morbidity score at day 7 ([1]; 10 mg/kg i.v.): 0/50
median mortality, time after infection ([1]; 30 mg/kg i.v.): 60 h
morbidity score at day 7 ([1]; 30 mg/kg i.v.): 5/50
effect on survival rate ([1]; 2.5×10^6 CFU/mouse i.v., 10 and 30 mg/kg i.v., 4 injections 6, 24, 48, 72 h, 10 mice, placebo 100% lethal day 4): no significant effect

DKLIGSCVWGAVNYTRDCNGECKRRGYKGGHCGSFANVNCWCET [pEM42, peptide derived from heliomycin]
Activity C.a. (relative activity in relation to heliomycin) (Candida albicans): 8
Activity A.f. (relative activity in relation to heliomycin) (Aspergillus fumigatus): 1

DKLIGSCVWGAVNYTRNCNAECKRRGYKGGHCGSFANVNCWCET [pEM50, peptide derived from Ard1]
Activity C.a. (relative activity in relation to Ard1) (Candida albicans): 1-2
Activity A.f. (relative activity in relation to Ard1) (Aspergillus fumigatus): 1

DKLIGSCVWGAVNYTSDCNGECKRRGYKGGHCGSFANINCWCET [pEM23, peptide derived from heliomycin]
Activity C.a. (relative activity in relation to heliomycin) (Candida albicans): 1
Activity A.f. (relative activity in relation to heliomycin) (Aspergillus fumigatus): 2

DKLIGSCVWGAVNYTSDCNGECKRRGYKGGHCGSFANVNCWCER [pEM7, peptide derived from heliomycin]
Activity C.a. (relative activity in relation to heliomycin) (Candida albicans): 4-8
Activity A.f. (relative activity in relation to heliomycin) (Aspergillus fumigatus): 1

DKLIGSCVWGAVNYTSDCNGECKRRGYKGGHCGSFANVNCWCQT [pEM21, peptide derived from heliomycin]
Activity C.a. (relative activity in relation to heliomycin) (Candida albicans): 2
Activity A.f. (relative activity in relation to heliomycin) (Aspergillus fumigatus): 10-20

DKLIGSCVWGAVNYTSDCNGECKRRGYKGGHCGSFINVNCWCET [pEM22, peptide derived from heliomycin]
Activity C.a. (relative activity in relation to heliomycin) (Candida albicans): 1-2
Activity A.f. (relative activity in relation to heliomycin) (Aspergillus fumigatus): 4-8

DKLIGSCVWGAVNYTSDCNGECKRRGYKGGHCGSFLNVNCWCET [pEM25, peptide derived from heliomycin]
Activity C.a. (relative activity in relation to heliomycin) (Candida albicans): 10
Activity A.f. (relative activity in relation to heliomycin) (Aspergillus fumigatus): 6

DKLIGSCVWGAVNYTSDCRGECKRRGYKGGHCGSFANVNCWCET [pEM44, peptide derived from heliomycin]
Activity C.a. (relative activity in relation to heliomycin) (Candida albicans): 8
Activity A.f. (relative activity in relation to heliomycin) (Aspergillus fumigatus): 2

DKLIGSCVWGAVNYTSNCNAECKRRGYKGGHCGSFANINCWCET [pEM33, peptide derived from Ard1]
Activity C.a. (relative activity in relation to Ard1) (Candida albicans): 1
Activity A.f. (relative activity in relation to Ard1) (Aspergillus fumigatus): 1

DKLIGSCVWGAVNYTSNCNAECKRRGYKGGHCGSFINVNCWCER [pEM49, peptide derived from Ard1]
Activity C.a. (relative activity in relation to Ard1) (Candida albicans): 3
Activity A.f. (relative activity in relation to Ard1) (Aspergillus fumigatus): 1-2

DKLIGSCVWGAVNYTSNCNAECKRRGYKGGHCGSFINVNCWCET [pEM32, peptide derived from Ard1]
Activity C.a. (relative activity in relation to Ard1) (Candida albicans): 1
Activity A.f. (relative activity in relation to Ard1) (Aspergillus fumigatus): 2

DKLIGSCVWGAVNYTSNCNAECKRRGYKGGHCGSFINVNCWCQT [pEM47, peptide derived from Ard1]
Activity C.a. (relative activity in relation to Ard1) (Candida albicans): 2-4
Activity A.f. (relative activity in relation to Ard1) (Aspergillus fumigatus): 8

DKLIGSCVWGAVNYTSNCNAECKRRGYKGGHCGSFLNINCWCET [pEM34, peptide derived from Ard1]
Activity C.a. (relative activity in relation to Ard1) (Candida albicans): 4
Activity A.f. (relative activity in relation to Ard1) (Aspergillus fumigatus): 4

DKLIGSCVWGAVNYTSRCNAECKRRGYKGGHCGSFANVNCWCET [pEM52, peptide derived from Ard1]
Activity C.a. (relative activity in relation to Ard1) (Candida albicans): 1-2
Activity A.f. (relative activity in relation to Ard1) (Aspergillus fumigatus): 0.5

DKLIGSCVWGAVNYTTDCNGECKRRGYKGGHCGSFANVNCWCET [pEM43, peptide derived from heliomycin]
Activity C.a. (relative activity in relation to heliomycin) (Candida albicans): 1
Activity A.f. (relative activity in relation to heliomycin) (Aspergillus fumigatus): 2

DKLIGSCVWLAVNYTSNCNAECKRRGYKGGHCGSFANVNCWCET [pEM56, peptide derived from Ard1]
Activity C.a. (relative activity in relation to Ard1) (Candida albicans): 1-2
Activity A.f. (relative activity in relation to Ard1) (Aspergillus fumigatus): 0.5

DKLIGSCVWLAVNYTSNCNAECKRRGYKGGHCGSFANVNCWCQT [pEM57, peptide derived from Ard1]
Activity C.a. (relative activity in relation to Ard1) (Candida albicans): 1
Activity A.f. (relative activity in relation to Ard1) (Aspergillus fumigatus): 8

DKLIGSCVWLAVNYTSNCNAECKRRGYKGGHCGSFLNVNCWCET [pEM54, peptide derived from Ard1]
Activity C.a. (relative activity in relation to Ard1) (Candida albicans): 1
Activity A.f. (relative activity in relation to Ard1) (Aspergillus fumigatus): 1

DKLIGSCVWLAVNYTSNCNAECKRRGYKGGHCGSFLNVNCWCQT [pEM55, peptide derived from Ard1]
Activity C.a. (relative activity in relation to Ard1) (Candida albicans): 1-2
Activity A.f. (relative activity in relation to Ard1) (Aspergillus fumigatus): 2-7

DKLIGTCVWGAVNYTSDCNGECKRRGYKGGHCGSFANVNCWCET [pEM38, peptide derived from heliomycin]
Activity C.a. (relative activity in relation to heliomycin) (Candida albicans): 1
Activity A.f. (relative activity in relation to heliomycin) (Aspergillus fumigatus): 1

NKLIGSCVWGAVNYTSDCNGECKRRGYKGGHCGSFANVNCWCET [pEM37, peptide derived from heliomycin]
Activity C.a. (relative activity in relation to heliomycin) (Candida albicans): 2

NKLIGSCVWGAVNYTSDCNGECKRRGYKGGHCGSFANVNCWCQT [pEM39, peptide derived from heliomycin]
Activity C.a. (relative activity in relation to heliomycin) (Candida albicans): 2
Activity A.f. (relative activity in relation to heliomycin) (Aspergillus fumigatus): 4-8

NKLIGSCVWGAVNYTSDCNGECKRRGYKGGHCGSFINVNCWCQT [pEM62, peptide derived from heliomycin]
Activity C.a. (relative activity in relation to heliomycin) (Candida albicans): 3-6
Activity A.f. (relative activity in relation to heliomycin) (Aspergillus fumigatus): 2-4

NKLIGSCVWGAVNYTSDCNGECKRRGYKGGHCGSFLNVNCWCQT [pEM61, peptide derived from heliomycin]
Activity C.a. (relative activity in relation to heliomycin) (Candida albicans): 5-10
Activity A.f. (relative activity in relation to heliomycin) (Aspergillus fumigatus): 3-6

NKLIGSCVWGAVNYTSNCNAECKRRGYKGGHCGSFANVNCWCET [pEM40, peptide derived from Ard1]
Activity C.a. (relative activity in relation to Ard1) (Candida albicans): 2
Activity A.f. (relative activity in relation to Ard1) (Aspergillus fumigatus): 1
